# Measurements as given in patent US5496947A, “Quinolone carboxylic acid derivatives” (Dong Wha Pharmaceutical Industrial Co., Ltd., priority 1994, dated 1996).
# Where two headings read alike, the source gives them in different places.
# Assays:
# [1] = tested on: Streptococcus pneumoniae ATCC 6303; assay: MIC, 2-fold dilution method in micro-well plate, S. pneumoniae; assay type: cell-based; conditions: S. pneuinoniae ATCC6303, 37° C., read-out: Minimum Inhibitory Concentration
# How it was run: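 Inoculum of about (10^5–10^6)/2 cfu/ml came from an overnight brain-heart infusion culture at 37° C. Compounds, tested as hydrochloride salts dissolved in sterile water, were two-fold serially diluted in micro-well plates. The lowest concentration inhibiting growth after 37° C incubation was taken as MIC.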
# [2] = tested on: Streptococcus pyrogens ATCC 19615; assay: MIC, 2-fold dilution method in micro-well plate, S. pyrogens; assay type: cell-based; conditions: S. pyrogenes ATCC19615, 37° C., read-out: Minimum Inhibitory Concentration
# How it was run: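 Inoculum from overnight 37° C brain-heart infusion culture gave roughly (10^5-10^6)/2 cfu/mL per well against two-fold serial dilutions of hydrochloride-salt compound in water. Lowest concentration inhibiting growth after 37° C incubation taken as MIC.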
# [3] = tested on: Shigella sonnei ATCC 25931; assay: MIC, 2-fold dilution method in micro-well plate, S. sonnei; assay type: cell-based; conditions: S. sonnei ATCC25931, 37° C., read-out: Minimum Inhibitory Concentration
# How it was run: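 Compounds, converted to hydrochloride salts, were serially diluted two-fold in micro-wells and mixed with an equal volume of bacteria grown overnight in BHI broth at 37° C (final about (10^5-10^6)/2 cfu/ml). Following culture at 37° C, the minimum inhibitory concentration was recorded.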
# [4] = Pharmacokinetic properties in ICR mouse, oral and subcutaneous, Bio-Assay (Agar well method); assay type: in vivo; conditions: 40 mg/kg, average of four tests; for AUC / Cmax / Tmax / bioavailability / half-life: blood; for dose excreted: urine, read-out: Urine Recovery
# Method: The pharmacokinetic properties are tested by orally administrating and subcutaneously injecting a test compound and a substance for control to a ICR Mouse with 22 g±10% weight, drawing blood after 10, 20, 30, 45, 60, 90, 120, 150, 180 and […] and analyzed by Bio-Assay (Agar well method).
# [5] = tested on: Enterobacter aerogenes ATCC 13048; assay: MIC, 2-fold dilution method in micro-well plate, E. aerogenes; assay type: cell-based; conditions: Klebsiella aerogenes, ATCC13048, read-out: Minimum Inhibitory Concentration
# How it was run: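 MIC read after growth at 37° C in micro-well plates, with E. aerogenes at roughly (10^5–10^6)/2 cfu/ml per well, grown overnight in brain-heart infusion broth. Compounds tested as hydrochlorides, serially diluted two-fold in water from a 10 mg/ml stock.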
# [6] = tested on: Acinetobacter calcoaceticus; assay: MIC, 2-fold dilution method in micro-well plate, A. calcoaceticus; assay type: cell-based; conditions: A. calcoaceticus ATCC8090 (as in tables), 37° C., read-out: Minimum Inhibitory Concentration
# [7] = tested on: Haemophilus influenza ATCC 35056; assay: MIC, 2-fold dilution method in micro-well plate, H. influenzae; assay type: cell-based; conditions: H. influenzae ATCC35056, 37° C.; read-out: Minimum Inhibitory Concentration
# How it was run: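 Hydrochloride salts dissolved in water (10 mg/ml stock) and serially diluted two-fold in micro-wells, each mixed with equal volume of overnight BHI-grown bacteria to about (10^5-10^6)/2 cfu/ml. Minimum inhibitory concentration recorded after incubation at 37° C.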
# [8] = tested on: Pseudomonas aeruginosa ATCC 27853; assay: MIC, 2-fold dilution method in micro-well plate, P. aeruginosa; assay type: cell-based; conditions: P. aerugirnosa ATCC27853, 37° C., read-out: Minimum Inhibitory Concentration
# How it was run: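 MIC was recorded after 37° C incubation of bacteria with serial two-fold dilutions of compound. Bacteria came from an overnight 37° C BHI culture; the final inoculum was about (10^5-10^6)/2 cfu/ml. Compounds were tested as hydrochloride salts diluted in sterile water from a 10 mg/ml stock.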
# [9] = tested on: Proteus vulgaris ATCC 13315; assay: MIC, 2-fold dilution method in micro-well plate, P. vulgaris; assay type: cell-based
# How it was run: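 MIC recorded after 37 °C cultivation of compound hydrochloride salts in serial 2-fold aqueous dilutions, mixed equally with overnight BHI culture (about 10^5 cfu/ml inoculum). Micro-well plate format.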
# [10] = tested on: Streptococcus faecalis ATCC 29212; assay: MIC, 2-fold dilution method in micro-well plate, S. faecalis ATCC 29212; assay type: cell-based; conditions: Enterococcus faecalis; S. faecalis ATCC29212, 37° C.; read-out: Minimum Inhibitory Concentration
# How it was run: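 MIC was read after incubation at 37° C in micro-well plates. Bacteria were grown overnight in BHI broth and added to give about (10^5-10^6)/2 cfu/ml per well. The hydrochloride-salt compounds were serially diluted two-fold in sterile water.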
# [11] = tested on: Klebsiella pneumoniae ATCC 13883; assay: MIC, 2-fold dilution method in micro-well plate, K. pneumoniae; assay type: cell-based
# How it was run: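 MIC determined after 37 °C incubation of wells inoculated with overnight BHI-grown bacteria at about (10^5–10^6)/2 cfu/ml final. Compound tested as hydrochloride salt, dissolved in sterile water and diluted two-fold serially.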
# [12] = tested on: Citrobacter freundii ATCC 8090; assay: MIC, 2-fold dilution method in micro-well plate, C. freundii; assay type: cell-based
# How it was run: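 MIC recorded after 37° C. culture of wells inoculated at roughly (10^5-10^6)/2 cfu/ml, bacteria pre-grown overnight in BHI broth. Compounds, converted to hydrochloride salts and dissolved in sterile distilled water, serially diluted two-fold in micro-well plates.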
# [13] = tested on: Salmonella typhimurium ATCC 14028; assay: MIC, 2-fold dilution method in micro-well plate, S. typhimurium; assay type: cell-based; conditions: Salmonella enterica, read-out: Minimum Inhibitory Concentration
# How it was run: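 Hydrochloride salts dissolved in sterile water (10 mg/ml stock) and serially diluted twofold in microplate wells, then inoculated to roughly (10^5-10^6)/2 cfu/ml from overnight BHI culture. MIC recorded after 37 °C cultivation.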
# [14] = tested on: Streptococcus faecalis ATCC 19433; assay: MIC, 2-fold dilution method in micro-well plate, S. faecalis ATCC 19433; assay type: cell-based; conditions: Enterococcus faecalis; S. faecalis ATCC19433, 37° C.; read-out: Minimum Inhibitory Concentration
# How it was run: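 Bacteria grown overnight in brain-heart infusion broth at 37 °C, then mixed with two-fold serial aqueous dilutions of hydrochloride salts in micro-wells at roughly (10^5-10^6)/2 cfu/ml. Lowest inhibitory concentration recorded after 37 °C culture.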
# [15] = tested on: Serratia marcescens ATCC 8100; assay: MIC, 2-fold dilution method in micro-well plate, S. marcescens; assay type: cell-based
# How it was run: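 Bacteria grown overnight in BHI broth at 37 °C were added to wells of two-fold diluted compound (as HCl salt, aqueous) at about (10^5-10^6)/2 cfu/ml final. Lowest inhibitory concentration recorded after 37 °C incubation.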
# [16] = tested on: Escherichia coli ATCC 25922; assay: MIC, 2-fold dilution method in micro-well plate, E. coli; assay type: cell-based
# How it was run: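 Broth two-fold microdilution of hydrochloride salts in water against E. coli ATCC 25922 grown overnight in BHI at 37° C. Final inoculum about (10^5 -10^6)/2 cfu/ml; after incubation at 37° C, MIC was recorded.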
# Enterobacter cloacae = assay: MIC, 2-fold dilution method in micro-well plate, E. cloacae; assay type: cell-based; conditions: read-out: Minimum Inhibitory Concentration
# [17] = tested on: Shigella flexneri ATCC 12022; assay: MIC, 2-fold dilution method in micro-well plate, S. flexneri; assay type: cell-based; conditions: S. flexneri ATCC12022, 37° C., read-out: Minimum Inhibitory Concentration
# How it was run: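 Test compounds, converted to hydrochloride salts and dissolved in sterile water, were serially diluted two-fold in micro-well plates. Wells received bacteria grown overnight in brain-heart infusion broth at 37 °C, about (10^5–10^6)/2 cfu/ml final. Minimum inhibitory concentration determined following incubation at 37 °C.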
# LD50, oral, mice = conditions: mouse, in vivo
Structure (SMILES),MIC [1],MIC [2],MIC [3],"AUC ([4]; po, P.O)","Cmax ([4]; po, P.O)","Tmax ([4]; po, P.O)","bioavailability ([4]; po, P.O)","half-life ([4]; po, P.O)","AUC ([4]; sc, S.C)","Cmax ([4]; sc, S.C)","Tmax ([4]; sc, S.C)","half-life ([4]; sc, S.C)","dose excreted ([4]; po, P.O)","dose excreted ([4]; sc, S.C)",MIC [5],MIC [6],MIC [7],MIC [8],MIC [10],MIC [14],also measured
"CC1CN(c2cc3c(cc2F)c(=O)c(C(=O)O)cn3-c2ccc(F)cn2)CCN1.Cl (stereo not drawn) [Example 19, 1-(5-fluoro-2-pyridyl)-6-fluoro-7-(3-methyl-1-piperazinyl)-1,4-dihydro-4-oxoquinoline-3-carboxylic acid hydrochloride]",5 µg/mL,10 µg/mL,0.313 µg/mL,16900 ng·h/mL,3110 ng/mL,52.2 min,72.7%,505 min,23300 ng·h/mL,5110 ng/mL,52.2 min,319 min,29%,48.7%,0.625 µg/mL,1.25 µg/mL,0.625 µg/mL,0.625 µg/mL,5 µg/mL,5 µg/mL,"MIC ([9]; P. vulgaris ATCC13315, 37° C., read-out: Minimum Inhibitory Concentration): 0.156 µg/mL; MIC ([11]; K. pneumoniae ATCC13883, 37° C., read-out: Minimum Inhibitory Concentration): 1.25 µg/mL; MIC ([12]; C. freundii ATCC8090, 37° C., read-out: Minimum Inhibitory Concentration): 1.25 µg/mL; MIC [13]: 0.313 µg/mL; MIC ([15]; ATCC8100, read-out: Minimum Inhibitory Concentration): 0.625 µg/mL; MIC ([16]; E. coli ATCC25922, 37° C., read-out: Minimum Inhibitory Concentration): 0.078 µg/mL; MIC (Enterobacter cloacae): 0.625 µg/mL; MIC [17]: 0.313 µg/mL"
"CN1CCN(c2nc3c(cc2F)c(=O)c(C(=O)O)cn3-c2ccc(F)cn2)CC1.Cl [Example 13, 1-(5-fluoro-2-pyridyl)-6-fluoro-7-(4-methyl-1-piperazinyl)-1,4-dihydro-4-oxo-1,8-naphthyridine-3-carboxylic acid hydrochloride]",2.5 µg/mL,5 µg/mL,0.156 µg/mL,41000 ng·h/mL,11500 ng/mL,67.2 min,74%,484 min,55500 ng·h/mL,8000 ng/mL,48.6 min,688 min,19.6%,30.8%,0.625 µg/mL,0.313 µg/mL,0.625 µg/mL,1.25 µg/mL,5 µg/mL,5 µg/mL,"LD50 (LD50, oral, mice): ~1000 mg/kg; MIC ([9]; ATCC13315, read-out: Minimum Inhibitory Concentration): 0.625 µg/mL; MIC ([11]; ATCC13883, read-out: Minimum Inhibitory Concentration): 0.625 µg/mL; MIC ([12]; ATCC8090, read-out: Minimum Inhibitory Concentration): 0.156 µg/mL; MIC ([13]; S. typhisurium ATCC14028, 37° C.): 0.313 µg/mL; MIC ([15]; S. marcescens ATCC8100, 37° C., read-out: Minimum Inhibitory Concentration): 0.313 µg/mL; MIC ([16]; ATCC25922, read-out: Minimum Inhibitory Concentration): 0.156 µg/mL; MIC (Enterobacter cloacae; E. cloacae ATCC23355 (as in tables), 37° C.): 0.313 µg/mL; MIC [17]: 0.156 µg/mL"
